Each structure is given as a SMILES string. “And” between values parts separate entries of the source, which are not always exact repeats. Equal entries are not always repeated. Where two headings read alike, the source gives them in different places.

In one data set the target is T1, VDR (Homo sapiens, UniProt P11473).
T1 construct: the receptor expression vector pGal-4-VDR-LBD (10 ng); expressed in transfected cells; host or cells: Caco-2 cells
T1 sequence (P11473 127-423 limits assumed): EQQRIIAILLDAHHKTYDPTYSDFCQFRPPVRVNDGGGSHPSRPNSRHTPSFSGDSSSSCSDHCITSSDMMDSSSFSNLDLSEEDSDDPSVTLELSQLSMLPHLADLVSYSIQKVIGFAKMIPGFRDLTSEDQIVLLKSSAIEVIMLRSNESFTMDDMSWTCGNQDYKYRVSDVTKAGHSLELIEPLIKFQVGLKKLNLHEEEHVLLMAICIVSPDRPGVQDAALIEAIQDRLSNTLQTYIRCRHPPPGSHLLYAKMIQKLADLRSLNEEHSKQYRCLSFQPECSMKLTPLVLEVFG
Put plainly: VDR CTF (Caco-2 cell co-transfection) assay. It counts as cell-based. The settings on record: Caco-2 cells, Gal-4-VDR-LBD co-transfection; Table 1. The protocol: 2. The Caco-2 Cell Co-transfection Assay:
The Caco-2 cell assay is an indicator for the undesirable condition of hypercalcemia. This co-transfection assay is a surrogate assay for in vivo calcemic activity of VDR ligands. […] Preferred assay results are greater than 1000 nM.
Step 4: FuGENE, DNA and Media Complex to-well plate • Add FuGENE-DNA-Media complex from step 3 to each plate • Incubate. […] Day 4: Luciferase Assay • Read the plates after drug treatment • Remove part of media from all the wells and leave remainder • Add Steady-Glo Luciferase Reagent mixture/wells • Incubate • Count each well using a Luminescence counter, Top Count NXT by Packard Set a delay between plates to reduce the background. (2) Materials and Method for The Caco-2 Cell Assay:
Caco-2 cells, grown in phenol red free, DMEM (Invitrogen, Carlsbad, Calif.) containing 10% charcoal-stripped FCS (Hyclone, Logan, Utah), were transfected with Fugene 6 reagent (Roche Diagnostics, Indianapolis, Ind.). Cells (5000/well) were plated 18 h before transfection in a 96 well plate. The Cells were transfected with Gal-4-responsive reporter pFRLuc (150 ng, Stratagene, La Jolla Calif.) and the receptor expression vector pGal-4-VDR-LBD (10 ng), along with Fugene 6 reagent (0.2 μl/well). The DNA-Fugene complex was formed by incubating the mixture for 30 min at room temperature. The cells were transfected in triplicate for 5 h, and treated with various concentrations of VDR ligands (form 0.01 nM to 10,000 nM concentration range) 18 h post-transfection. The luciferase activity was quantified using Steady-Glo reagent kit (Promega, Madison, Wis.) as per manufacturer's specifications.

In a further data set the test system is rat osteocalcin promoter. Put plainly: OCN (osteocalcin) promoter assay. It counts as cell-based. Conditions: RG-15 (ROS 17/2.8) cells, 48 hr treatment. On the procedure: 3. The OCN (osteocalcin) Promoter Assay
The OCN Promoter Assay is an indicator and marker for osteoporosis. […] Preferred assay results are less than 50 nM.
(3) Materials and Method for The OCN Promoter Assay:
The activation of osteocalcin by VDR ligands was evaluated in a rat osteoblast-like cell line RG-15 (ROS 17/2.8) stably expressing rat osteocalcin promoter fused with luciferase reporter gene. […] After 24 hr, cells (in DMEM/F-12 medium +2% FBS) were treated with various concentrations of compounds, dissolved in DMSO. The final DMSO concentration remained at 0.01% (v/v). After 48 hr treatment, the medium was removed, cells were lysed with 50 μl of lysis buffer (From Luciferase reporter assay system, Roche Diagnostics, Indianapolis, Ind.) and assayed for luciferase activity using the Luciferase Reporter Gene Assay kit from Boehringer Mannheim as per manufacturer's specifications.

Another data set concerns KERtr cells. Put plainly: Keratinocyte proliferation assay. It counts as cell-based, Human. Conditions: BrdU incorporation. On the procedure:
5. The Keratinocyte Proliferation Assay
This Assay is indicative for the treatment of psoriasis.
(5) The Keratinocyte Proliferation Assay:
KERtr cells (Human skin keratinocyte transformed with a retrovirus vector, obtained from ATCC) were plated in 96-well flat-bottomed plates (3000 cells/well) in 100 μl keratinocyte serum free medium supplemented with bovine pituitary extract in the absence of EGF (Life Technologies, Rockville, Md.) and incubated at 37° C. for two days. The cells were treated with various concentrations of VDR ligands (ten-fold serial dilution from 10,000 nM to 0.1 nM in triplicate), dissolved in 100 μl keratinocyte serum free medium supplemented with bovine pituitary extract in the absence of EGF and incubated at 37° C. for 72 hr. […] Potency values (IC50) values were determined as the concentration (nM) of compound that elicited a half-maximal response.
In general terms: Uptake of a labelled nucleoside into DNA is a usual measure of proliferation.

A short description of data set [1]: Mouse hypercalcemia assay. Conditions: six day hypercalcemia test, oral gavage, serum ionized calcium.
Method: The Mouse Hypercalcemia Assay
The Mouse Hypercalcemia Assay is a six day hypercalcemia test for toxicity and selectivity. Acceptable test results are levels greater than 300 μg/kg/day. Preferred assay results are levels greater than 1000 μg/kg/day.
(4) Materials and Method for The Mouse Hypercalcemia Assay:
Weanling, virus-antibody-free, five to six weeks old female DBF mice (Harlan, Indianapolis, Ind.) are used for all the studies. Animals are allowed to acclimate to local vivarium conditions for 2 days. […] The animals then are divided into groups with 4-5 mice per group. Different doses of test compounds prepared in 10% Ethanol and 90% sesame oil are administered to mice orally via gavage for 6 days. 1α-25(OH)2D3 0.5 μg/kg/d was also given to one group of mice as the positive control. […] Raw data of group differences is assessed by analysis of variance (ANOVA) using Fisher's protected least significant difference (PLSD) where the significance level was P<0.05.
The target in another data set is T2, RXR-VDR heterodimer (Homo sapiens, UniProt P11473).
T2 construct: Add the Gal-4-RXR-DEF and VP16-VDR-LBD; expressed in transfected cells; host or cells: SaOs-2 cells
T2 sequence (P11473 127-423 limits assumed): T1 sequence (P11473 127-423 limits assumed)
T2 sequence (P19793 201-462 partner limits assumed): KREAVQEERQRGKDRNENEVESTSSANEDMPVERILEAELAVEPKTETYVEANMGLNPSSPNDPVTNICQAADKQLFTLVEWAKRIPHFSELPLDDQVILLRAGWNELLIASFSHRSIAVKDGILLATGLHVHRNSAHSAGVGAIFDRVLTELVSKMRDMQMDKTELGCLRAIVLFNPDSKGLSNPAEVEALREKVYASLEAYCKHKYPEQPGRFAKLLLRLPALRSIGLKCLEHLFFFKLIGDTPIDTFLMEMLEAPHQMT
Put plainly: RXR-VDR heterodimerization assay (SaOS-2 cells). Format: cell-based. The settings on record: luciferase reporter, Table 1. The source says: 1. The RXR-VDR Heterodimer Assay:
This assay provides the VDR activity of a test compound.
(1) Materials and Method for RXR-VDR Heterodimerization Assay:
Transfection/Treatment Media: • D-MEM Low Glucose Without Phenol Red only
Flat well Plates: • Use well plate to plate cells • Use Deep well plate sterile to make up treatment media.
Luciferase Assay Reagent: • Use Steady-Glo Luciferase Reagent from Promega (Cat #E2550) Consists of: • a. E2533 Assay Substrate, lyopholized product and • b. E2543 Assay Buffer. • Thaw at room temperature • Store Day 1: Cell Plating: • Cell Harvesting • Aspirate media from culture flask, rinse cells with HBSS and aspirate. • Add trypsin and incubate. • When cells appear detached, resuspend cells in growth media. • Transfer into a new flask with fresh growth media for passaging the cells. • Plate well plates and two extra plates A. Cell Count • Mix the cell suspension using pipette • Use Hematocytometer to count the cells • Load cell suspension onto the hemocytometer chamber • Count cells.
Step 1: DNA and Media • Add plain DMEM media to tubes for mixing the DNA • Add the Reporter gene pFR-LUC • Add the Gal-4-RXR-DEF and VP16-VDR-LBD
Step 2: FuGENE and Media • Prepare plain DMEM media in a ubes for mixing PuGENE • Add FuGENE 6 Transection Reagent • Incubate
Step 3: FuGENE, DNA and Media Complex • Add FuGENE Media complex from step 2 to DNA Media complex from step1 • Incubate
Step 4: FuGENE, DNA and Media Complex to-well plate • Add FuGENE-DNA-Media complex from step 3 to each plate • Incubate. […] Day 4: Luciferase Assay • Read the plates after drug treatment • Remove part of media from all the wells and leave remainder • Add Steady-Glo Luciferase Reagent mixture/wells • Incubate • Count each well using a Luminescence counter, Top Count NXT by Packard Set a delay between plates to reduce the background. (2) Materials and Method for The Caco-2 Cell Assay: […]
For orientation: In a reporter assay the amount or activity of a reporter protein is the signal.

The mark [2] stands for this setting: 72 hr, Table 2, read-out: Kera. Prolif. IC50.
Setting [3] is: Rattus norvegicus, 48 h, Table 3 comparison compounds.
The mark [4] stands for this setting: Homo sapiens, Keratinocyte, 72 h, Table 4 comparison compounds, read-out: Kera. Prolif. IC50.
Where [5] appears, read: Rattus norvegicus, 48 h, Table 1.

As usually defined, the EC50 is the concentration at which the effect is half-maximal. One may read the IC50 as the concentration that gives 50% inhibition. As for `CCC(CC)(c1ccc(OCC(O)C(C)(C)C)c(C)c1)c1ccc(C(=O)N(C)C)o1` (single isomer, unassigned) [Ex. 3, 3′-[4-(2-hydroxy-3,3-dimethylbutoxy)-3-methylphenyl]-3′-[5-dimethylaminocarbonyl-2-furanyl]pentane], the EC50 at VDR is 391 nM; in the data set on rat osteocalcin promoter (Table 1), 4.6 nM and 2.5 nM. Also, in the data set with KERtr cells (setting [2]), the IC50 worked out at 1 nM. Further, the “Mouse Hypercal” value in data set [1] (Table 1) is greater than 2000 µg/kg/day.

For the compound `CCC(CC)(c1ccc(OCC(=O)C(C)(C)C)c(C)c1)c1ccc(OC[C@H](O)C(C)(C)C)c(C)c1` [EE, reference compound], the EC50 with rat osteocalcin promoter (setting [3]) worked out at 341 nM. Further, the “Mouse Hypercal” value in data set [1] (Table 3 comparison compounds) was 1000 µg/kg/day.

`CCC(CC)(c1ccc(OCC(=O)C(C)(C)C)c(C)c1)c1oc(C(=O)N(C)C)cc1C` [Ex. 8, 3′-[4-(2-oxo-3,3-dimethyl-butoxy)-3-methylphenyl]-3′-[5-dimethylaminocarbonyl-3-methyl-2-furanyl]-pentane]: the EC50 on RXR-VDR heterodimer is 156 nM; on VDR it was 758 nM; in the data set with rat osteocalcin promoter (Table 1), 125 nM. In the data set on KERtr cells (setting [2]), the IC50 was greater than 1000 nM.

For `CCC(CC)(c1ccc(OCC(O)CO)c(C)c1)c1ccc(OCC(O)C(C)(C)C)c(C)c1` (stereo not drawn) [BB, 3-(4-{1-Ethyl-1-[4-(2-hydroxy-3,3-dimethyl-butoxy)-3-methyl-phenyl]-propyl}-2-methyl-phenoxy)-propane-1,2-diol, reference compound], the EC50 with rat osteocalcin promoter (setting [3]) was determined as 8.24 nM. Further, in the data set on KERtr cells (setting [4]), the IC50 was determined as 10 nM. In data set [1] (Table 3 comparison compounds), the “Mouse Hypercal μg/Kg/d” value was “>=20 μg/Kg/d”.

With `CCC(O)(CC)COc1ccc(C(CC)(CC)c2ccc(C(=O)N(C)C)o2)cc1C` [Ex 14, 3′-[4-(2-hydroxy-2-ethylbutoxy)-3-methylphenyl]-3′-[5-dimethylaminocarbonyl-2-furanyl]pentane], the concentration for a half-maximal effect (EC50) at RXR-VDR heterodimer was determined as 104 nM; at VDR, 635 nM; in the data set with rat osteocalcin promoter (setting [5]), 101 nM.

As for `CCN(CC)C(=O)c1ccc(C(CC)(CC)c2ccc(OCC(=O)C(C)(C)C)c(C)c2)o1` [Ex 7, 3′-[4-(2-oxo-3,3-dimethyl-butoxy)-3-methylphenyl]-3′-[5-diethylaminocarbonyl-2-furanyl]-pentane], the EC50 in the data set on rat osteocalcin promoter (Table 1) worked out at 95 nM. The IC50 with KERtr cells (setting [2]) turned out to be 23 nM. In data set [1] (Table 1), the “Mouse Hypercal” value is greater than 9000 µg/kg/day.

As to `CCNC(=O)c1ccc(C(CC)(CC)c2ccc(OCC(=O)C(C)(C)C)c(C)c2)o1` [Ex. 6, 3′-[4-(2-oxo-3,3-dimethyl-butoxy)-3-methylphenyl]-3′-[5-ethylaminocarbonyl-2-furanyl]-pentane], the EC50 at RXR-VDR heterodimer is 320 nM; on VDR, 315 nM; in the data set with rat osteocalcin promoter (Table 1), greater than 1000 nM. The IC50 in the data set with KERtr cells (setting [2]) amounted to 112 nM.

`CCc1cc(C(CC)(CC)c2ccc(C(=O)N(C)C)o2)ccc1OCC(O)C(C)(C)C` (single isomer, unassigned; enantiomer 1) [Ex. 10, 3′-[4-(2-hydroxy-3,3-dimethyl-butoxy)-3-ethylphenyl]-3′-[5-dimethylaminocarbonyl-2-furanyl]pentane enantiomer 1] returned an EC50 on VDR of 191 nM. The IC50 in the data set with KERtr cells (setting [2]) is 7 nM. For the same compound, the “Mouse Hypercal” value in data set [1] (Table 1) is greater than 1000 µg/kg/day.

For the compound `CCCc1cc(C(CC)(CC)c2ccc(C(=O)N(C)C)o2)ccc1OCC(O)C(C)(C)C` (single isomer, unassigned; enantiomer 1) [Ex. 12, 3′-[4-(2-hydroxy-3,3-dimethyl-butoxy)-3-n-propyl-phenyl]-3′-[5-dimethylaminocarbonyl-2-furanyl]pentane enantiomer 1], the concentration for a half-maximal effect (EC50) on RXR-VDR heterodimer stood at 188 nM; on VDR, 187 nM. Besides, the IC50 in the data set on KERtr cells (setting [2]) came out at 17 nM.

Regarding `Cc1cc(C2(c3ccc(OCC(=O)C(C)(C)C)c(C)c3)CCCCC2)ccc1OCC(=O)C(C)(C)C` [CC, 1-(4-{1-[4-(3,3-Dimethyl-2-oxo-butoxy)-3-methyl-phenyl]-cyclohexyl}-2-methyl-phenoxy)-3,3-dimethyl-butan-2-one, reference compound], the EC50 with rat osteocalcin promoter (setting [3]) is greater than 1000 nM.

On to `CCC(CC)(c1ccc(OCC(O)C(C)(C)C)c(C)c1)c1ccc(C(=O)N(C)C)o1` (single isomer, unassigned) [Ex. 4, 3′-[4-(2-hydroxy-3,3-dimethylbutoxy)-3-methylphenyl]-3′-[5-dimethylaminocarbonyl-2-furanyl]pentane], for which the EC50 was 333 nM at VDR; 2 nM and 1 nM in the data set on rat osteocalcin promoter (Table 1). In the data set on KERtr cells (setting [2]), the IC50 was determined as 4 nM. In data set [1] (Table 1), the “Mouse Hypercal” value is greater than 2000 µg/kg/day.

Turning to `CCC(CC)(c1ccc(OCC(O)C(C)(C)C)c(C)c1)c1ccc(C(=O)N(C)C)o1` (racemic) [Ex. 2, 3′-[4-(2-hydroxy-3,3-dimethylbutoxy)-3-methylphenyl]-3′-[5-dimethylaminocarbonyl-2-furanyl]pentane], the figures for the EC50 at VDR and with rat osteocalcin promoter (setting [5]) were 25 nM and 3 nM, respectively.

Consider `CCC(CC)(c1ccc(OCC(=O)C(C)(C)C)c(C)c1)c1ccc(OCC(=O)C(C)(C)C)c(C)c1` [DD, reference compound], for which, in the data set on rat osteocalcin promoter (setting [3]), the concentration for a half-maximal effect (EC50) was 31.1 nM. Moreover, the IC50 with KERtr cells (setting [4]) was 1060 nM. Besides, in data set [1] (Table 3 comparison compounds), the “Mouse Hypercal” value was 1000 µg/kg/day.

These data come from patent US7468449B2, “Phenyl-furan compounds as vitamin D receptor modulators” (Eli Lilly and Company, priority 2003, dated 2008).
